We go through 1 compound from patent USRE49873E1, “APP specific bace inhibitors (ASBIs) and uses thereof” (BUCK INSTITUTE FOR RESEARCH ON AGING, priority 2012, dated 2024).

Entries after “also recorded” stand apart in the source; their conditions may differ.

For data set [1], the target named is T1, BACE cleavage of the P5-P5′ substrate (Homo sapiens, UniProt P56817).
T1 construct: purchased Sigma-Aldrich (kit); R&D (HTS description) CS0010; 931-AS-050
Briefly: ASBI assay b): P5-P5′ fluorescence substrate cleavage assay. In kind it is biochemical. Conditions: flavonoids at 100 uM. On the procedure: As illustrated in the Examples, in one embodiment, an MBP-C125 APP695 wt fusion protein can be used as one of the substrates. The second substrate can be the commercially available P5-P5′ fluorescence substrate. Each of these substrates is incubated with recombinant BACE (R&D (cat#931-AS-050) in, for example, a 96 well plate format. For the MBP-C125 substrate the C-99 product from the BACE cleavage can be measured using an AlphaLisa assay as a readout. For the P5-5′ substrate the […] upon BACE cleavage can be used as the readout. An ASBI would inhibit the BACE cleavage of the MBP-C125 substrate while not being inhibitory of the fluorescence substrate. […]
A primary high-throughput screening (HTS) assay was set up for identification of ASBIs using a dual-substrate testing paradigm (FIGS. 3A & 3B). The previously reported (Sinha et al. (1999) Nature, 402: 537-540) BACE substrate the MBP-C125 APP695 wt fusion protein consisting of maltose binding protein fused to the carboxyterminal 125 amino acids of wild type APP, was used as the primary substrate; and the commercially available P5-P5′ fluorescence substrate, derived from the P5-P5′ residues of the BACE cleavage site of APP, was used as the secondary substrate. […]

Data set [2] has as its system sAPPβ production by SH-SY5Y cells. Briefly: sAPPβ AlphaLisa in SH-SY5Y neuroblastoma cells. The class given is cell-based. The method, then: APP is processed through two major pathways: the non-amyloidogenic pathway involves α-secretase cleavage, proteolyzing APP into sAPPα and α-CTF (C83), while the amyloidogenic pathway starts with β-secretase cleavage, cleaving APP into sAPPβ and β-CTF (C99). The β-CTF is then cleaved by the γ-secretase, which produces Aβ and AICD. The ability of the ASBIs to inhibit the β-secretase processing of APP was tested in SH-SY5Y neuroblastoma cells that express APP. The sAPPβ fragment formed from the BACE cleavage product was measured using an AlphaLisa assay from Perkin-Elmer (Cat# A2132). […] Testing of a panel of bioflavonoids led to the identification of galangin as an ASBI.
(Bead proximity is the source of the signal in Alpha formats.)

For data set [3], the system named is APP-Gal4 transactivation in HEK293T cells. The data set is described as follows: APP-Gal4/Mint3/TAZ transactivation assay. Conditions: Mint3 and TAZ present, galangin at 10 μM. The class given is cell-based. An excerpt:
FIGS. 7A and 7B illustrate inhibition of APP-Gal4 and APLP2-Gal4 transactivation by galangin. […] This transactivation was inhibited by Galangin and BACE inhibitor IV. FIG. 7B: Potent transactivation of transcription was also achieved with APLP2 fused to the Gal4 DNA binding domain when both Mint3 and TAZ were present. This transactivation was inhibited by Galangin and BACE inhibitor IV. […] The normalized luciferase activity is expressed as a percentage of the DMSO treated control (FIGS. 7A, 7B). Error bars indicate SEM. (*, p<0.05; **, p<0.01; ***, p<0.001; n=3, student t test).
This assay system is described by Orcholski et al. (2011) J. Alzheimers Dis., 23(4):689-699. Transactivation is achieved upon transfection with Mint3 and Taz. The ASBI was expected to inhibit only the transactivation of APP-Gal4, not that of APLP2-Gal4. For these experiments cells were co-transfected with a Gal4-luciferase reporter plasmid (to measure transactivation), a beta-galactosidase plasmid (to normalize for transfection efficiency), and the test plasmids identified. The normalized luciferase activity was expressed as fold induction over transcription by APP-Gal4 alone (FIG. 7A), or as fold induction over APLP2-Gal4 alone (FIG. 7B).
HEK293T cells were co-transfected with five plasmids: (1) pG5E1B-luc, 0.3 μg; (2) pCMV-LacZ, 0.1 μg; (3) pMst-APP (APP-Gal4) or pcDNA3.1-APLP2-Gal4, 0.3 μg; (4) pCMV5-Mint3, 1.0 μg; (5) pEF-N-FLAG-TAZ, 1.0 μg. Cells were harvested 48 hr after transfection in 0.2 ml per well Cell Culture Lysis Buffer (Promega), and their luciferase and β-galactosidase activities were determined with the Promega luciferase assay kit and the Promega β-galactosidase assay kit, respectively. The luciferase activity was standardized by the β-galactosidase activity to control for transfection efficiency and general effects on transcription. Transfections were performed at 80-90% cofluency in six-well plates using Lipofectamine 2000 (Invitrogen).

The next data set is described as follows: in vivo. Also noted: species or system mice. The settings on record: mouse. On the procedure:
The brain penetrance of galangin and progalangin were assessed in a standard PK comprising subcutaneous (Sub-Q) injection of 5 adult non-transgenic mice with 50 ul of a 5 mg/ml stock of compound in dimethylsulfoxide (DMSO) or a dose of 10 mg/kg for a 25 g mouse. Injected mice were anesthetized with ketamine/xylazine at 1, 2, 4, 6, and 8 hours and blood collected by cardiac puncture. The mice were then perfused with saline and brain tissue dissected and snap frozen on dry ice. Blood was centrifuged at 3000 rpm for 10 minutes and the plasma supernatant collected. Both plasma and the right hemibrain were sent to Integrated Analytical Solutions (IAS, Berkeley, Calif.) with a reference sample of compound for compound level analysis in tissue and plasma. The compound levels were determined using a LC-MS/MS approach.
CNS exposure studies were performed and consisted of a time-course design to collect heparinized plasma and brains. Following sc administration of the galangin or progalangin (compound-2) at 10 mg/kg, plasma and brain levels of the compounds were determined by quantitative LC/MS/MS methodology. Plasma samples were precipitated with acetonitrile:methanol (1:1) cocktail containing an internal standard. The brain samples were homogenized directly in ethylacetate or extracted from 5M guanidine homogenates with the liquid-liquid method. The resulting supernatant was evaporated to dryness and subjected to the LC/MS/MS analysis. For each compound 5 mice were used for the analysis. The brain-to-plasma ratios and plasma/brain Cmax levels were then determined (see, e.g., FIG. 8).

T1 sequence (P56817 46-501): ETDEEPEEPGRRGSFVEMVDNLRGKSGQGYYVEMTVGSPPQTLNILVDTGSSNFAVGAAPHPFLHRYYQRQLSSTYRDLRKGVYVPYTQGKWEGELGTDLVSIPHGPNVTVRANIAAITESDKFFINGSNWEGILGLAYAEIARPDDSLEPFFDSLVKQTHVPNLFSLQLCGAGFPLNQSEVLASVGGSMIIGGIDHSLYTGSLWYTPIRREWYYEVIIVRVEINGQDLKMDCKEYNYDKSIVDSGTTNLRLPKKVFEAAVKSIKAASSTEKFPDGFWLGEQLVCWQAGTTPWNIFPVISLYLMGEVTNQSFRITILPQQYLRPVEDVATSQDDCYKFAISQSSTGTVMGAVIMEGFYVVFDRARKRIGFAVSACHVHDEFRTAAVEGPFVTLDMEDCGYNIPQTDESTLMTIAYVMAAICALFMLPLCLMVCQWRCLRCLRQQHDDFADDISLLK

For the compound `O=c1c(O)c(-c2ccccc2)oc2cc(O)cc(O)c12` [Galangin], the “inhibition of BACE cleavage of the P5-P5′ substrate” value in data set [1] was “showing no inhibition of the P5-P5′ substrate”. Besides, the APP levels entry in data set [2] is given as “No effect on APP levels was detected”. For the same compound, the sAPPβ levels result in data set [2] (50 μM) was “decreased sAPPβ levels”. The APP-Gal4 transactivation result in data set [3] is given as “inhibited”. In addition, the APP-Gal4 transactivation result in data set [3] (listed as galangin) is “inhibit; also recorded: inhibits APP-Gal4 and APLP2-Gal4”. Further, in the data set “in vivo”, the brain penetration entry was “did show some brain penetration” and the “plasma levels versus brain tissue levels” value was “Plasma levels were greater than brain tissue levels”. Also, in “in vivo” (sc, 10 mg/kg), the “brain Cmax of galangin” value is around 50 ng/g, the “brain to plasma ratio” value is on record as 1:10 and the concentration at 1 h came out at 40 ng/g.
